The results in this text go back to ChEMBL document CHEMBL3877337, “Crystal Structures of ERAP2 Complexed with Inhibitors Reveal Pharmacophore Requirements for Optimizing Inhibitor Potency” (ACS Med Chem Lett, 2017).

Structures are written as SMILES. pIC50: −log10 of the molar value.

For the assay, the target named is Endoplasmic reticulum aminopeptidase 2 (Homo sapiens, UniProt Q6P179). Kind of assay: Inhibition of recombinant ERAP2 (unknown origin) expressed in baculovirus infected insect cells using L-arginine-7-amido-4-methylcoumarine as substrate by spectrofluorimetric assay.
Sequence of Endoplasmic reticulum aminopeptidase 2 (Q6P179 whole entry): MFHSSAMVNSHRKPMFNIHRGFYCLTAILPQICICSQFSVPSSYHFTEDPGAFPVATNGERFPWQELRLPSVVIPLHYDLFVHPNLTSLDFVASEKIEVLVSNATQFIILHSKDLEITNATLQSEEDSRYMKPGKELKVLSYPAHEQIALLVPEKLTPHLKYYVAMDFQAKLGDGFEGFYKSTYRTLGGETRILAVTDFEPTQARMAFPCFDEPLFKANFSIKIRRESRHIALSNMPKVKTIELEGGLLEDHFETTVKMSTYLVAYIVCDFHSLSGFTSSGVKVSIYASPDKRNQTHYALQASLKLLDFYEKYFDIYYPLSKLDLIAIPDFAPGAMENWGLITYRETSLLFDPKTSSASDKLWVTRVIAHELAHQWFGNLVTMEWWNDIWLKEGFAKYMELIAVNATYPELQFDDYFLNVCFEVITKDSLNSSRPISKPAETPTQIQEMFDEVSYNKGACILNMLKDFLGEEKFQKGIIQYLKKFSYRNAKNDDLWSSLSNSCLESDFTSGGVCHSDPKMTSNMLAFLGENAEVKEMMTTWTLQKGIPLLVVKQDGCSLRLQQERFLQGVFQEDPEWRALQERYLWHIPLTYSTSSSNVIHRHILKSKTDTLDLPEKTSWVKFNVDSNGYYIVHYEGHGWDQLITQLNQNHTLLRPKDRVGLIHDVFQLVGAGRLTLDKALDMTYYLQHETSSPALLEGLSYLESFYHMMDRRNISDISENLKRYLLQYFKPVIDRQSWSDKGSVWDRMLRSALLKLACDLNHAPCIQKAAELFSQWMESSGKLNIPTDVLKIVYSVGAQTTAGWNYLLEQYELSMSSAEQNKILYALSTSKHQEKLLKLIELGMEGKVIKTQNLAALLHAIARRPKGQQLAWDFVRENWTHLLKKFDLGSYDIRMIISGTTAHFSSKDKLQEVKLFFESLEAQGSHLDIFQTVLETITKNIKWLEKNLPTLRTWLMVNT

Usually pIC50 stands for −log10 of the IC50, conventionally taken in molar units. Regarding `O=C(NO)C(Cc1ccc(F)cc1)C(=O)NCc1ccccc1` (stereo unspecified), the pIC50 was less than 4.00.
